Results as given in patent US11192932B2, “Heparin-binding domain of IGFBP-2 in the treatment of metabolic disorders” (Amolyt Pharma, priority 2018, dated 2021).
Entries after “also recorded” stand apart in the source; their conditions may differ. No end group written: not given here. *: point of attachment. Stearoyl = CCCCCCCCCCCCCCCCCC(=O)*

Experiments:
[1] = tested on: 3T3-LI adipocytes; assay: [3H]-2-deoxyglucose uptake by fully differentiated 3T3-LI adipocytes; type: cell-based, mouse; settings: 3 μg/ml for 24 hours
Experimental: The cells were exposed to the test compounds at a concentration of 3 μg/ml for 24 hours before testing for [^3H]-2-deoxyglucose uptake.
3T3-LI cells are a mouse fibroblast cell line which when cultured under specific conditions, differentiate into adipocytes.
Differentiation of 3T3-LI cells into adipocytes was achieved using the following protocol. 3T3-L1 cells were seeded in 24-well plates and cultured in 3T3-L1 maintenance medium (DMEM containing 10% fetal bovine serum, 4 mM L-glutamine 1 mM, sodium pyruvate) until the cells were 100% confluent. The cells were then fed with 3T3-L1 maintenance medium and cultured for a further 48 h. To initiate differentiation into adipocytes, the medium was changed to Differentiation medium 1 (DMEM containing 10% fetal bovine serum, 4 mM L-glutamine, 1 mM sodium pyruvate, 0.5 mM IBMX, […]), and cultured for a further 2 days. The medium was then changed to Differentiation medium 2 (DMEM containing 10% fetal bovine serum, 4 mM L-glutamine, 1 mM sodium pyruvate, 1 mg/ml insulin), and cultured for a further 2 days. The medium was then changed to Adipocyte Maintenance medium (DMEM containing 10% fetal bovine serum, 4 mM L-glutamine, 1 mM sodium pyruvate), and cultured for a further 7 days. During this time, the medium was changed every other day. The now fully differentiated adipocytes were utilized for glucose uptake experiments (day 11 from initiation of differentiation). Stock solutions of the HBD1 peptides to be tested were prepared by dilution with 0.9% NaCl solution under sterile conditions in a laminar flow cabinet to a concentration of 1 mg/ml, based on net peptide content. The solutions were homogenized by gentle inversion. Test items were prepared from the stock solutions, and remaining stock solution was aliquoted and stored at −20° C. and used without repeated freeze-thaw cycles.
Glucose uptake experiments were carried our using the following protocol. Prior to beginning the experiment, 100 ml of Krebs Ringer bicarbonate buffer (KRBB)(25 mM Hepes pH 7.4, 118 mM NaCl, 5 mM NaHCO3, 4.7 mM KCl, 1.2 mM KH2PO4, 1.2 mM MgSO4, 2.5 mM CaCl2, 0.2% BSA—Filtered using a 0.2 μm filter) and 100 ml of Incubation medium (DMEM containing 4 mM L-glutamine, 1 mM sodium pyruvate, 1% penicillin streptomycin, 0.2% BSA—Filtered using a 0.2 μm filter) were pre-warmed to 37° C., and 500 ml of KRBB was chilled on ice. Stock solutions of test compounds were diluted to 3 μg/ml final concentrations in pre-warmed Incubation medium and in pre-warmed KRBB. Insulin (positive control), previously diluted 1:1000 in sterile 0.9% NaCl, was further diluted in 10 ml of both medium and buffer to a final concentration of 1 nM. All traces of the medium were carefully removed from the cells using a fine tip. […]

[2] = tested on: AMPK; assay: AMPK phosphorylation (immunoblot anti-pAMPK T172) in C2C12 myotubes; type: cell-based, mouse; settings: C2C12 myotubes, peptide incubated 8 hours (FIG. 7)
Experimental: In particular: HBD1 SEQ ID NO: 73 (C18:0-HLGLEEPKK). The AMPK pathway is both insulin and IGF1 independent, but acts ultimately to induce GLUT4 translocation to the cell membrane to facilitate the uptake and metabolism of glucose.
For signaling studies the cells were prepared the same way except 6-well plates were used. After 6 days incubation in differentiating medium, the cells were washed with serum-free medium. The various treatments were then added in serum free medium containing 0.1% BSA. HBD1 peptides were added and incubated for 8 hours. When utilizing IGF-I, incubation was for 15 minutes after IGF-1 addition. Following incubation the cells were lysed in RIPA buffer and sonicated. The cell lysate was centrifuged and the supernatant analyzed for either Akt or AMPK by SDS PAGE using a 10% gel followed by immunoblotting with the appropriate antibody.
To examine further the intracellular transduction pathways utilized by the HBD1 peptides, following treatment with HBD1 peptide SEQ ID NO: 73 (C18:0-HLGLEEPKK), cell lysate proteins, were separated by SDS PAGE and immunoblotted with anti-pAMPK T172.

C18:0-HLGLEEPKK (Stearoyl-HLGLEEPKK) [SEQ ID NO: 73]
glucose uptake by 3T3-LI adipocytes [1]: stimulated increased glucose uptake
phosphorylated AMPK (T172) [2]: dose-dependent increase in phosphorylated AMPK; also recorded: dose-dependent phosphorylation (activation) of the AMPK pathway
